Values quoted from earlier work in patent EP4603079A1, “COMPOSITION COMPRISING A PEPTIDE HAVING AN ISOELECTRIC POINT OF LESS THAN 6.5 AND A CO-POLYAMINO ACID BEARING CARBOXYLATE CHARGES AND HYDROPHOBIC RADICALS” (Adocia, priority 2024, dated 2025).

Biological target: T1, amylin receptor 3 (AMYR3) (Homo sapiens, UniProt O60896+P30988)
T1 sequence (P30988 25-474): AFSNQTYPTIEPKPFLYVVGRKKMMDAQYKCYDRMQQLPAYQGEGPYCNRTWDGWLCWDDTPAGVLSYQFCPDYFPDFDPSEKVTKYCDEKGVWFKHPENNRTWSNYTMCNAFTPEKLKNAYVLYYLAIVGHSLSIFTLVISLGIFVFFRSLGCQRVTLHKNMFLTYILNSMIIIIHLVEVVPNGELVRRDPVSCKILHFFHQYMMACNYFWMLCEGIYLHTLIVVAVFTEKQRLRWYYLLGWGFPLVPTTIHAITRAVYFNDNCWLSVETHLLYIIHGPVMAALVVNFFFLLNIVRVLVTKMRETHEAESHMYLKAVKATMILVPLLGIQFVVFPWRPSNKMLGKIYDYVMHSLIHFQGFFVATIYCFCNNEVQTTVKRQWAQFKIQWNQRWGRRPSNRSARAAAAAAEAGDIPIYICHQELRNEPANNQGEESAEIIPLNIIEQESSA
T1 sequence (O60896 24-148): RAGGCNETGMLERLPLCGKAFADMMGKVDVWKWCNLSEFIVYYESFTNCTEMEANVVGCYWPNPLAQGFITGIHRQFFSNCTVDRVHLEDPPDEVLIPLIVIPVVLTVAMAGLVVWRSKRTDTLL
Details: procedure of WO2022129526, Assay 2; Tables 4b and 4c there; read-out: EC50value

For “N-alpha-[(S)-4-Carboxy-4-(19-carboxynonadecanoylamino)butyryl]-[Glu14,Arg17,Pro37]-pramlintide [cagrilintide]”, the EC50 is given as roughly 0.011 nM.
